Reference: patent publication US20240148769A1, “PHARMACEUTICAL COMPOSITION FOR PREVENTING OR TREATING CORONAVIRUS DISEASE 19, CONTAINING CARBOCYCLIC NUCLEOSIDE DERIVATIVE” (FUTURE MEDICINE CO., LTD., priority 2021, published 2024)
Like-named read-outs stand apart in the source and are kept apart here.

What was measured:
SARS-CoV-2 = test: microbe, parasite or virus in culture; assay type: cell-based; conditions: for inhibition at 10 µM: screening criterion for Positives, 10 μM (FIG. 8), read-out: ability to inhibit infection
in vitro = conditions: African green monkey
[1] = Severe acute respiratory syndrome coronavirus 2, Vero, 24 h
[2] = Severe acute respiratory syndrome coronavirus 2, Vero cells, SARS-CoV-2 MOI 0.0125, 24 hours, derived through the DRC, duplicate, read-out: IC50
[3] = Severe acute respiratory syndrome coronavirus 2, Vero cells

SMILES | IC50 (SARS-CoV-2; [1]) [µM] | CC50 (in vitro) [µM] | IC50 (SARS-CoV-2; [2]) [µM] | inhibition at 10 µM (SARS-CoV-2; [3]) [%]
CCN(CC)CCCC(C)Nc1ccnc2cc(Cl)ccc12 (stereo not drawn) [Chloroquine, chloroquine, reference compound] | 9.71 | > 150 |  | 
Nc1ncnc2c1ncn2[C@H]1C(O)C(O)[C@@H](CO)[C@H]1F (stereo partly drawn) [Chemical Formula 1-1] |  | > 50 | 7.43 | ≥ 70
CCC(CC)COC(=O)[C@H](C)N[P@](=O)(OC[C@H]1O[C@@](C#N)(c2ccc3c(N)ncnn23)[C@H](O)[C@@H]1O)Oc1ccccc1 [Remdesivir, remdesivir, reference compound] | 7.9 | > 50 |  | 
Nc1ncnc2c1ncn2[C@H]1C(O)C(O)[C@@H](CO)C1(F)F (stereo partly drawn) [Chemical Formula 1-2] |  | > 50 | 3.08 | ≥ 70
CNc1nc(-c2cccs2)nc2c1nc(C#Cc1ccccc1)n2[C@@H]1OCC(O)C1O (stereo partly drawn) [Chemical Formula 2] |  | > 50 | 7.22 | ≥ 70
Cc1cccc(C)c1OCC(=O)N[C@@H](Cc1ccccc1)[C@@H](O)C[C@H](Cc1ccccc1)NC(=O)[C@H](C(C)C)N1CCCNC1=O [Lopinavir, lopinavir, reference compound] | 20.8 | > 50 |  | 
